Patent publication US20240239840A1, “method for the treatment of pain and a medicinal product for administration during pain” (PVP LABS PTE.LTD., priority 2023, published 2024)
Square brackets hold non-standard residues; d marks the D form. Peptide text beside a SMILES is read from it.

Key:
[1] = tested on: cancer patients with severe cancer pain; experiment: phase II clinical trial, efficacy in cancer patients experiencing pain; type: in vivo, human
Description: (§1) Pain intensity was evaluated on a numeric rating scale (NRS) from 0 to 10. […] The patients' physical activity score on the Eastern Cooperative Oncology Group (ECOG) performance status scale was 0 to 3, i.e. they were active and were up and about for over 50% of waking hours (grade 2 on the ECOG scale) or were capable of only limited self-care and confined to bed or chair more than 50% of waking hours (grade 3 on the ECOG scale).
(§2) The study was carried out in two stages. The total duration of the trial for each patient was 20 days or less. […] The number of doses depended on pain intensity as evaluated on the NRS scale for each individual patient.
The primary efficacy endpoint was the rate of achieving a sufficient analgesic effect throughout the day.

[2] = phase II clinical trial, safety in cancer patients experiencing pain
Description: as §1, §2
Comments: 1. […] 2. SAE=serious adverse event.

[3] = tested on: patients with cancer pain; experiment: phase III clinical trial, efficacy in patients with cancer pain; type: in vivo, human
Description: Primary efficacy evaluation was performed during the following visits: Visit 1 (day 1 of tetrapeptide treatment), Visit 2 (day 28±2 of tetrapeptide treatment), Visit 3 (day 56±2 of tetrapeptide treatment) and Visit 4 (day 86±2 of tetrapeptide treatment).
Analgesic treatment response maintenance rate by day 28.
Treatment response was considered maintained if all of the following conditions were met: • 1. […] Daily average pain intensity at the end of the 28-day treatment period remains at <50% of the intensity at the start of titration.

[4] = phase III clinical trial, safety in patients with cancer pain
other opioid receptors = experiment: opioid receptor specificity of the tetrapeptide; type: binding
Text: (§3) Two subtypes of μ receptors are recognized: activation of μ1 receptors causes pronounced analgesia, while activation of μ2-receptors leads to respiratory depression, cardiovascular system disturbances such as bradycardia, and suppression of intestinal motility. Therefore, high specificity of the tetrapeptide in question to μ1-opioid receptors ensures the absence of side effects that are typical of most opioid narcotic medications. This tetrapeptide interacts with peripheral and central receptors, although it mostly acts at the spinal level. After the tetrapeptide binds to μ1-receptors, G-protein complex is released, which inhibits the release of neurotransmitters by the cell by reducing the amount of cAMP produced, closing calcium channels and opening potassium channels, which, among other consequences, inhibits the transmission of pain signals in nociceptors. The tetrapeptide activates the antinociceptive system, thereby disrupting interneuronal transmission of pain signals at different levels of the CNS, and changes the intensity of pain perception by acting on the higher brain centres.

δ-receptors = δ-receptors (Homo sapiens, UniProt P41143); experiment: opioid receptor specificity of the tetrapeptide; type: binding
Sequence of δ-receptors (P41143 whole entry): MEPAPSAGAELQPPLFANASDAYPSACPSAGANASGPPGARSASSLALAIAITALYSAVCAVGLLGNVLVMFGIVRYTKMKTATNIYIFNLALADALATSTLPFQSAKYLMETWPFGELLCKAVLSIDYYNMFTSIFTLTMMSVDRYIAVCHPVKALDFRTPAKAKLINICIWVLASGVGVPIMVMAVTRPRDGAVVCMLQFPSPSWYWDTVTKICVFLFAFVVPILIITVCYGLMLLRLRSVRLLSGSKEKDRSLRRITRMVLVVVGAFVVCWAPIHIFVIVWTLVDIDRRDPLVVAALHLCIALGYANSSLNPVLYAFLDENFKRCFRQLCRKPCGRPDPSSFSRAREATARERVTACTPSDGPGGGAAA
Text: as §3

μ1-opioid receptor = μ1-opioid receptor (Homo sapiens, UniProt P35372); experiment: opioid receptor specificity of the tetrapeptide; type: binding
Sequence of μ1-opioid receptor (P35372 whole entry): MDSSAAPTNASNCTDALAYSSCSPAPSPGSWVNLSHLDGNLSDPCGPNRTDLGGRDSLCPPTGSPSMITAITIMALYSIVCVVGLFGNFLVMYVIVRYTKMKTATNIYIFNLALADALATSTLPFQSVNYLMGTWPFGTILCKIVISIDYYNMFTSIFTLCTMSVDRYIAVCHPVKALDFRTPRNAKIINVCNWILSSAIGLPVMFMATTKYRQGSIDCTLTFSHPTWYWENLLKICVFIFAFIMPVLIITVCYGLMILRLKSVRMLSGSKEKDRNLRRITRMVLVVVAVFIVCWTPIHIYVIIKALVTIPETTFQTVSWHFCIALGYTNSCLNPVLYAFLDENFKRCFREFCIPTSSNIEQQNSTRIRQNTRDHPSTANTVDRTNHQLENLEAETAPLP
Text: as §3

[5] = tested on: patients with early postoperative pain; experiment: clinical trial of pain treatment in the early postoperative period, efficacy; type: in vivo, human
Description: (§4) Additional clinical trials focused of the treatment of pain in the early postoperative period after a variety of surgical interventions, including urological, gynaecological and other surgeries.
(§5) If NRS pain intensity score on day two was <4, only paracetamol was administered by IV injection as necessary, and the maximum daily dose was […]. […] Pain was usually brought under control within 1-2 days in the early postoperative period.

[6] = clinical trial of pain treatment in the early postoperative period, safety; type: in vivo, human; settings: groups treated with Promedol
Description: as §4, §5

[7] = investigator-evaluated, Visit 2
[8] = Promedol 20 mg three times daily
[9] = Promedol 20 mg three times daily on day 1

Structure (SMILES): CN1CC[C@]23c4c5ccc(O)c4O[C@H]2[C@@H](O)C=C[C@H]3[C@H]1C5 [morphine]
- average stable daily dose ensuring adequate pain relief ([1]; baseline, all Taphalgin dose subgroups): 20.31 mg
- average starting dose ([1]; before study, patients of the 2 mg Taphalgin subgroup): 18.33 mg
- within-group trend of daily average NRS pain intensity scores ([1]; stage 2): flat
- daily average NRS pain intensity score ([1]; stage 2, day of dosing 11): 0.12 ± 0.22
- daily average NRS pain intensity score ([1]; stage 2, day of dosing 12): 0.30 ± 0.38
- daily average NRS pain intensity score ([1]; stage 2, day of dosing 13): 0.24 ± 0.35
- daily average NRS pain intensity score ([1]; stage 2, day of dosing 14): 0.24 ± 0.35
- daily average NRS pain intensity score ([1]; stage 2, day of dosing 15): 0.28 ± 0.30
- daily average NRS pain intensity score ([1]; stage 2, day of dosing 16): 0.17 ± 0.21
- daily average NRS pain intensity score ([1]; stage 2, day of dosing 17): 0.17 ± 0.23
- dyspnoea / difficulty breathing ([2]; human, in vivo): difficulty breathing was observed
- Acute heart failure (SAE), % of the total number of AEs for the group ([2]; stage 2): (3.7) %
- Anaemia, % of the total number of AEs for the group ([2]; stage 2): (3.7) %
- Appetite lost, % of the total number of AEs for the group ([2]; stage 2): (7.4) %
- Asthenia, % of the total number of AEs for the group ([2]; stage 2): (14.8) %
- Constipation, % of the total number of AEs for the group ([2]; stage 2): (14.8) %
- Cough, % of the total number of AEs for the group ([2]; stage 2): (3.7) %
- Dizziness postural, % of the total number of AEs for the group ([2]; stage 2): (0) %
- Dizziness, % of the total number of AEs for the group ([2]; stage 2): (3.7) %
- Dry mouth, % of the total number of AEs for the group ([2]; stage 2): (3.7) %
- Flatulence, % of the total number of AEs for the group ([2]; stage 2): (3.7) %
- Insomnia, % of the total number of AEs for the group ([2]; stage 2): (3.7) %
- Multiple organ dysfunction syndrome (SAE), % of the total number of AEs for the group ([2]; stage 2): (3.7) %
- Nausea, % of the total number of AEs for the group ([2]; stage 2): (3.7) %
- Peripheral oedema, % of the total number of AEs for the group ([2]; stage 2): (3.7) %
- Pulmonary oedema (SAE), % of the total number of AEs for the group ([2]; stage 2): (3.7) %
- Sedation, % of the total number of AEs for the group ([2]; stage 2): (7.4) %
- Shortness of breath, % of the total number of AEs for the group ([2]; stage 2): (3.7) %
- Total, % of the total number of AEs for the group ([2]; stage 2): (100) %
- Vomiting, % of the total number of AEs for the group ([2]; stage 2): (3.7) %
- incidence of AEs ([2]; stage 2, 16 patients per group): 50.0%
- number of patients in whom AEs were reported ([2]; stage 2, 16 patients per group): 8
- number of SAEs reported ([2]; stage 2, in 1 patient): 1
- average SF-36 mental health score ([3]; Visit 0): 31.42±12.16
- average SF-36 physical health score ([3]; Visit 0): 32.22±10.76
- average SF-36 mental health score ([3]; Visit 2): 31.42±12.16
- average SF-36 physical health score ([3]; Visit 2): 49.52±11.73
- non-responders to therapy ([3]; by Visit 2): no non-responders
- proportion of patients who required a dose increase ([3]; by Visit 2): 6.52%
- proportion of patients with at least one episode of breakthrough pain ([3]; by Visit 2): 2.17%
- daily average NRS pain intensity score (Mean±SD) ([3]; by group, at Visit 2): 0.28±0.30
- proportion of patients with a “good response” to therapy [3, 7]: 67.39%
- proportion of patients with a “satisfactory response” to therapy [3, 7]: 0.00%
- proportion of patients with an “excellent response” to therapy [3, 7]: 32.61%
- prevalence of patients with AEs ([4]; Period 1): 71.19%
- total number of AEs reported ([4]; Period 1): 119
- AEs mild ([4]; Period 1, % of cases): 65.55%
- AEs moderate ([4]; Period 1, % of cases): 33.61%
- AEs severe ([4]; Period 1, % of cases): 0.84%
- causality between AEs and therapy: certain ([4]; Period 1, % of cases): 13.44%
- causality between AEs and therapy: conditional ([4]; Period 1, % of cases): 0.84%
- causality between AEs and therapy: possible ([4]; Period 1, % of cases): 38.66%
- causality between AEs and therapy: probable ([4]; Period 1, % of cases): 29.41%
- causality between AEs and therapy: unclassifiable ([4]; Period 1, % of cases): 0.84%
- causality between AEs and therapy: unlikely ([4]; Period 1, % of cases): 11.76%
- causality between AEs and therapy: unrelated ([4]; Period 1, % of cases): 5.04%
- number of AEs with causality “certain”, “probable” or “possible” ([4]; both, human, in vivo, oral): 97
- prevalence of patients with reported AEs ([4]; comprehensive within-group analysis (44/120 vs 43/59)): 72.88%

Structure (SMILES): N=C(N)NCCC[C@@H](NC(=O)[C@@H](N)Cc1ccc(O)cc1)C(=O)N[C@@H](Cc1ccccc1)C(=O)NCC(N)=O [H-Tyr-D-Arg-Phe-Gly-NH2, Tyrosyl-D-arginyl-phenylalanyl-glycinamide] (H-Y[dR]FG-NH2)
- interactions with the other receptors (other opioid receptors): no interactions with the other receptors have been detected
- interaction with δ-receptors weaker than with μ-opioid receptors (δ-receptors): 3 orders of magnitude
- opioid receptor activity (μ1-opioid receptor): highly specific μ1-opioid receptor agonist

Structure (SMILES): CCC(=O)OC1(c2ccccc2)CC(C)N(C)CC1C (centres unmarked) [Promedol]
- daily average NRS pain intensity score [5, 8]: 2.16±0.66
- mean change in pain intensity [5, 8]: 55.44±33.17%
- proportion of patients with greater than 50% pain relief at 1 hour after the initial dose [5, 8]: 50%
- patients requiring repeat dosing on day 2 who were dosed three times [5, 9]: 16.67%
- patients requiring repeat dosing on day 2 who were dosed twice [5, 9]: 83.33%
- daily average NRS pain intensity score ([5]; day 2, Promedol 20 mg three times daily): 1.41±1.92
- patients with AEs [6]: 35%
